The first experiment deals with WDR5 (Homo sapiens (Human), UniProt P61964). The experiment in a line: Surface Plasmon Resonance (SPR) assay, KD and residence time. The conditions noted are these: SPR, Table 2; read-out: WDR5 binding affinity (KD). Type of experiment: binding.
For `CC(=O)Nc1cc(C(F)(F)F)c(C(=O)Nc2cc(-c3cnc(N4CCOCC4)nc3)c(F)cc2N2C[C@@H](C)N(C)[C@@H](C)C2)cn1` [Example 27, 6-acetamido-N-[4-fluoro-5-(2-morpholin-4-ylpyrimidin-5-yl)-2-[(3R,5S)-3,4,5-trimethylpiperazin-1-yl]phenyl]-4-(trifluoromethyl)pyridine-3-carboxamide], the Kd is 294 nM.

Still in this experiment, the particulars now being: surface plasmon resonance (SPR) assay; read-out: WDR5 binding affinity (KD).
Turning to `CC(=O)Nc1cc(C(F)(F)F)c(C(=O)Nc2cc(-c3cnc(N4CCOCC4)nc3)c(F)cc2N2C[C@@H](C)N(C)[C@@H](C)C2)cn1` [Example 27, 6-acetamido-N-[4-fluoro-5-(2-morpholin-4-ylpyrimidin-5-yl)-2-[(3R,5S)-3,4,5-trimethylpiperazin-1-yl]phenyl]-4-(trifluoromethyl)pyridine-3-carboxamide], the Kd was 294 nM.

For the molecule `C[C@@H]1CN(c2cc(C(F)(F)F)c(-c3cnc(N4CCOCC4)nc3)cc2NC(=O)c2c[nH]c(=O)cc2C(F)(F)F)C[C@H](C)N1C` [Example 59, N-[5-(2-morpholin-4-ylpyrimidin-5-yl)-2-[rac-(3R,5S)-3,4,5-trimethylpiperazin-1-yl]-4-(trifluoromethyl)phenyl]-6-oxo-4-(trifluoromethyl)-1H-pyridine-3-carboxamide], the Kd was over 200 nM.

Take `COc1cc(=O)[nH]cc1C(=O)Nc1cc(-c2cnc(N3CCOCC3)nc2)c(F)cc1N1C[C@@H](C)N(C)[C@@H](C)C1` [Example 65, N-[4-fluoro-5-(2-morpholin-4-ylpyrimidin-5-yl)-2-[(3R,5S)-3,4,5-trimethylpiperazin-1-yl]phenyl]-4-methoxy-6-oxo-1H-pyridine-3-carboxamide]: the Kd amounted to 57.2 nM.

As to `C[C@@H]1CN(c2cc(F)c(-c3ccnc(OCC4CC4)c3)cc2NC(=O)c2c[nH]c(=O)cc2C(F)(F)F)C[C@H](C)N1C` [Example 66, N-[5-[2-(cyclopropylmethoxy)pyridin-4-yl]-4-fluoro-2-[(3R,5S)-3,4,5-trimethylpiperazin-1-yl]phenyl]-6-oxo-4-(trifluoromethyl)-1H-pyridine-3-carboxamide], the equilibrium dissociation constant (Kd) came out at 1.16 nM.

`C[C@@H]1CN(c2cc(F)c(-c3ccccc3CNC3CCCCC3)cc2NC(=O)c2c[nH]c(=O)cc2C(F)(F)F)C[C@H](C)N1C` [Example 67, N-[5-[2-[(cyclohexylamino)methyl]phenyl]-4-fluoro-2-[(3R,5S)-3,4,5-trimethylpiperazin-1-yl]phenyl]-6-oxo-4-(trifluoromethyl)-1H-pyridine-3-carboxamide]: the Kd stood at 4.82 nM.

As for `C[C@@H]1CN(c2cc(F)c(-c3ccc(N4CCOCC4)c(Cl)c3)cc2NC(=O)c2c[nH]c(=O)cc2C(F)(F)F)C[C@H](C)N1C` [Example 68, N-[5-(3-chloro-4-morpholin-4-ylphenyl)-4-fluoro-2-[(3R,5S)-3,4,5-trimethylpiperazin-1-yl]phenyl]-6-oxo-4-(trifluoromethyl)-1H-pyridine-3-carboxamide], the Kd turned out to be 1.34 nM.

For `C[C@@H]1CN(c2cc(F)c(-c3ccc4c(c3)OCCCO4)cc2NC(=O)c2c[nH]c(=O)cc2C(F)(F)F)C[C@H](C)N1C` [Example 69, N-[5-(3,4-dihydro-2H-1,5-benzodioxepin-7-yl)-4-fluoro-2-[(3R,5S)-3,4,5-trimethylpiperazin-1-yl]phenyl]-6-oxo-4-(trifluoromethyl)-1H-pyridine-3-carboxamide], the Kd amounted to 0.225 nM.

Consider `C[C@@H]1CN(c2cc(F)c(-c3ccc4c(c3)OCCO4)cc2NC(=O)c2c[nH]c(=O)cc2C(F)(F)F)C[C@H](C)N1C` [Example 70, N-[5-(2,3-dihydro-1,4-benzodioxin-6-yl)-4-fluoro-2-[(3R,5S)-3,4,5-trimethylpiperazin-1-yl]phenyl]-6-oxo-4-(trifluoromethyl)-1H-pyridine-3-carboxamide], for which the dissociation constant Kd was 0.429 nM.

Regarding `C[C@@H]1CN(c2cc(F)c(-c3ccc4c(c3)OCCN4C)cc2NC(=O)c2c[nH]c(=O)cc2C(F)(F)F)C[C@H](C)N1C` [Example 71, N-[4-fluoro-5-(4-methyl-2,3-dihydro-1,4-benzoxazin-7-yl)-2-[(3R,5S)-3,4,5-trimethylpiperazin-1-yl]phenyl]-6-oxo-4-(trifluoromethyl)-1H-pyridine-3-carboxamide], the Kd came out at 0.623 nM.

With `CC(=O)Nc1ncc(-c2cc(NC(=O)c3c[nH]c(=O)cc3C(F)(F)F)c(N3C[C@@H](C)N(C)[C@@H](C)C3)cc2F)cn1` [Example 72, N-[5-(2-acetamidopyrimidin-5-yl)-4-fluoro-2-[(3R,5S)-3,4,5-trimethylpiperazin-1-yl]phenyl]-6-oxo-4-(trifluoromethyl)-1H-pyridine-3-carboxamide], the Kd came to 0.823 nM.

As to `C[C@@H]1CN(c2cc(F)c(C3=CCN(c4ccccc4)CC3)cc2NC(=O)c2c[nH]c(=O)cc2C(F)(F)F)C[C@H](C)N1C` [Example 73, N-[4-fluoro-5-(1-phenyl-3,6-dihydro-2H-pyridin-4-yl)-2-[(3R,5S)-3,4,5-trimethylpiperazin-1-yl]phenyl]-6-oxo-4-(trifluoromethyl)-1H-pyridine-3-carboxamide], the Kd came out at 3.63 nM.

Regarding `C[C@@H]1CN(c2cc(F)c(-c3cnc(N4CCOCC4)nc3)cc2NC(=O)c2ccccc2)C[C@H](C)N1C` [Example 74, N-[4-fluoro-5-(2-morpholin-4-ylpyrimidin-5-yl)-2-[(3R,5S)-3,4,5-trimethylpiperazin-1-yl]phenyl]benzamide], the Kd was determined as 253 nM.

Turning to `COc1cc(C(=O)Nc2cc(-c3cnc(N4CCOCC4)nc3)c(F)cc2N2C[C@@H](C)N(C)[C@@H](C)C2)ccc1F` [Example 75, 4-fluoro-N-[4-fluoro-5-(2-morpholin-4-ylpyrimidin-5-yl)-2-[(3R,5S)-3,4,5-trimethylpiperazin-1-yl]phenyl]-3-methoxybenzamide], the Kd was 40.9 nM.

Regarding `C[C@@H]1CN(c2cc(F)c(-c3cnc(N4CCOCC4)nc3)cc2NC(=O)c2cc(Cl)cc(Cl)c2)C[C@H](C)N1C` [Example 76, 3,5-dichloro-N-[4-fluoro-5-(2-morpholin-4-ylpyrimidin-5-yl)-2-[(3R,5S)-3,4,5-trimethylpiperazin-1-yl]phenyl]benzamide], the Kd is 2.07 nM.

As for `C[C@@H]1CN(c2cc(F)c(-c3cnc(N4CCOCC4)nc3)cc2NC(=O)c2n[nH]c(=O)cc2C(F)(F)F)C[C@H](C)N1C` [Example 77, N-[4-fluoro-5-(2-morpholin-4-ylpyrimidin-5-yl)-2-[(3R,5S)-3,4,5-trimethylpiperazin-1-yl]phenyl]-6-oxo-4-(trifluoromethyl)-1H-pyridazine-3-carboxamide], the Kd is 4.43 nM.

Still in this experiment, the particulars now being: surface plasmon resonance (SPR); read-out: WDR5 binding affinity (KD).
Take `CC1CN(c2cc(F)c(-c3ccnc(N4CCOCC4)n3)cc2NC(=O)c2c[nH]c(=O)cc2C(F)F)CCN1C` (stereo in doubt) [Example 720, 4-(difluoromethyl)-N-[4-fluoro-5-(2-morpholin-4-ylpyrimidin-4-yl)-2-[(3R)-3,4-dimethylpiperazin-1-yl]phenyl]-6-oxo-1H-pyridine-3-carboxamide]: the Kd was 1.31 nM.

`CC1CN(c2cc(F)c(-c3cccc(N4CCOCC4)n3)cc2NC(=O)c2c[nH]c(=O)cc2C(F)F)CCN1C` (stereo in doubt) [Example 721, 4-(difluoromethyl)-N-[4-fluoro-5-(6-morpholin-4-ylpyridin-2-yl)-2-[(3R)-3,4-dimethylpiperazin-1-yl]phenyl]-6-oxo-1H-pyridine-3-carboxamide]: the Kd was 1.62 nM.

On to `CC(C)OC(=O)N1CC=C(c2cc(NC(=O)c3c[nH]c(=O)cc3C(F)F)c(N3CCN(C)C(C)C3)cc2F)CC1` (stereo in doubt) [Example 724, propan-2-yl 4-[5-[[4-(difluoromethyl)-6-oxo-1H-pyridine-3-carbonyl]amino]-2-fluoro-4-[(3R)-3,4-dimethylpiperazin-1-yl]phenyl]-3,6-dihydro-2H-pyridine-1-carboxylate], for which the Kd worked out at 2.82 nM.

On to `CC(C)OC(=O)N1CCC=C(c2cc(NC(=O)c3c[nH]c(=O)cc3C(F)F)c(N3CCN(C)C(C)C3)cc2F)C1` (stereo in doubt) [Example 726, propan-2-yl 5-[5-[[4-(difluoromethyl)-6-oxo-1H-pyridine-3-carbonyl]amino]-2-fluoro-4-[(3R)-3,4-dimethylpiperazin-1-yl]phenyl]-3,6-dihydro-2H-pyridine-1-carboxylate], for which the equilibrium dissociation constant (Kd) stood at 2.1 nM.

Take `CC(C)OC(=O)N1CC=C(c2cc(NC(=O)c3ccc(F)cc3C(F)(F)F)c(N3CCN(C)C(C)C3)cc2F)CC1` (stereo in doubt) [Example 727, propan-2-yl 4-[2-fluoro-5-[[4-fluoro-2-(trifluoromethyl)benzoyl]amino]-4-[(3R)-3,4-dimethylpiperazin-1-yl]phenyl]-3,6-dihydro-2H-pyridine-1-carboxylate]: the Kd stood at 2.46 nM.

In the case of `CC(C)OC(=O)N1CCC=C(c2cc(NC(=O)c3ccc(F)cc3C(F)(F)F)c(N3CCN(C)C(C)C3)cc2F)C1` (stereo in doubt) [Example 728, propan-2-yl 5-[2-fluoro-5-[[4-fluoro-2-(trifluoromethyl)benzoyl]amino]-4-[(3R)-3,4-dimethylpiperazin-1-yl]phenyl]-3,6-dihydro-2H-pyridine-1-carboxylate], the dissociation constant Kd amounted to 3.55 nM.

Regarding `C[C@@H]1CN(c2cc(F)c(-c3cnc(N4CCOC[C@H]4C)nc3)cc2NC(=O)c2ccc(F)cc2C(F)(F)F)CCN1C` (stereo in doubt) [Example 736, 4-fluoro-N-[4-fluoro-2-[(3R)-3,4-dimethylpiperazin-1-yl]-5-[2-[(3R)-3-methylmorpholin-4-yl]pyrimidin-5-yl]phenyl]-2-(trifluoromethyl)benzamide], the Kd amounted to 0.29 nM.

For `CC1CN(c2cc(F)c(-c3ccnc(N4C[C@@H](C)O[C@@H](C)C4)n3)cc2NC(=O)c2ccc(F)cc2C(F)(F)F)CCN1C` (stereo in doubt) [Example 739, 4-fluoro-N-[4-fluoro-5-[2-[(2R,6S)-2,6-dimethylmorpholin-4-yl]pyrimidin-4-yl]-2-[(3R)-3,4-dimethylpiperazin-1-yl]phenyl]-2-(trifluoromethyl)benzamide], the Kd came to 3 nM.

`CC1CN(c2cc(F)c(-c3cccc(N4CCNCC4)n3)cc2NC(=O)c2c[nH]c(=O)cc2C(F)(F)F)CCN1C` (stereo in doubt) [Example 742, N-[4-fluoro-5-(6-piperazin-1-ylpyridin-2-yl)-2-[(3R)-3,4-dimethylpiperazin-1-yl]phenyl]-6-oxo-4-(trifluoromethyl)-1H-pyridine-3-carboxamide]: the Kd worked out at 2.87 nM.

For orientation: Kd means the equilibrium constant for the complex coming apart.

These data come from patent US11319299B2, “Substituted carboxamides as inhibitors of WDR5 protein-protein binding” (PROPELLON THERAPEUTICS INC., priority 2016, dated 2022).
